Assay results taken from paper PMC2981508 (Science (New York, N.Y.), 2009).

Tests used:
[1] = tested on: AR recruitment to PSA enhancer and TMPRSS2 enhancer in LNCaP/AR cells; test: Chromatin immunoprecipitation of AR in LNCaP/AR cells; assay type: cell-based, human
[2] = tested on: DU145 prostate cancer xenografts; test: AR-negative DU145 prostate cancer xenografts; set-up: species or system mice; settings: mouse, in vivo
[3] = tested on: AR target genes PSA and TMPRSS2 in LNCaP/AR cells; test: qRT-PCR of AR-dependent genes in LNCaP/AR cells; assay type: cell-based, human; settings: androgen-depleted media 5% CSS, 8 hours, 1 and 10 μM
LNCaP/AR tumors = test: LNCaP/AR xenograft model of CRPC in castrate male mice
[4] = Plasma levels in LNCaP/AR tumor-bearing mice; settings: 10 mg/kg oral daily, 20 hours after the final dose on day 28
[5] = tested on: AR recruitment to PSA enhancer and TMPRSS2 enhancer in parental LNCaP cells; test: Chromatin immunoprecipitation of AR in parental LNCaP cells; assay type: cell-based, human
[6] = tested on: DU145 human prostate cancer cells; test: Growth of AR-negative DU145 cells in vitro; assay type: cell-based
serum PSA = test: Phase I/II clinical trial in men with CRPC; assay type: in vivo, human
VCaP cells [7] = test: VCaP apoptosis; assay type: cell-based, human; settings: 10 μM, 1 or 3 days, PARP cleavage
[8] = tested on: PSA and TMPRSS2 in parental LNCaP cells; test: Antagonism of R1881 induction of PSA and TMPRSS2 in parental LNCaP cells; assay type: cell-based, human
VCaP cells [9] = test: VCaP cell proliferation; assay type: cell-based, human; settings: 1 and 10 μM, media containing FBS
AR = settings: cited from earlier work
VP16-AR fusion protein = assay type: cell-based; settings: Cos-7 cells, 24 hours

Structure (SMILES): CC(O)(CS(=O)(=O)c1ccc(F)cc1)C(=O)Nc1ccc(C#N)c(C(F)(F)F)c1 (stereo not drawn) [bicalutamide, reference compound]
- AR recruitment to PSA enhancer and TMPRSS2 enhancer [1]: promoted AR recruitment
- growth of AR-negative DU145 xenografts [2]: neither bicalutamide nor RD162 impaired the growth
- Expression of AR target genes PSA and TMPRSS2 (agonist activity) [3]: induced
- Tumors progressed on treatment (of 12) (LNCaP/AR tumors; 10 mg/kg oral daily, 28 days): seven tumors
- Tumors regressed (12 tumors per group) (LNCaP/AR tumors; 10 mg/kg oral daily, 28 days): one tumor regressed by 50%
- Tumors with stable disease (of 12) (LNCaP/AR tumors; 10 mg/kg oral daily, 28 days): four tumors
- increase in tumor volume of progressing tumors (LNCaP/AR tumors; 10 mg/kg oral daily, 28 days): up to 5 fold
- Median time to tumor progression (LNCaP/AR tumors; continual 10 mg/kg oral daily treatment): 35 days
- Plasma levels (mean) [4]: 40 µM
- Plasma levels in all mice [4]: exceeded 25 μM
- AR recruitment to PSA enhancer and TMPRSS2 enhancer [5]: only R1881 promoted recruitment

Structure (SMILES): CNC(=O)c1ccc(N2C(=S)N(c3ccc(C#N)c(C(F)(F)F)c3)C(=O)C2(C)C)cc1F [MDV3100]
- Growth suppression in AR-negative DU145 cells [6]: not observed
- AR recruitment to PSA enhancer and TMPRSS2 enhancer [1]: Neither RD162 nor MDV3100 recruited AR
- Patients with sustained decline in serum PSA levels for at least 12 weeks (of 30) (serum PSA; 30 mg or 60 mg daily oral): Twenty-two
- Tolerability (serum PSA; 30 mg or 60 mg daily oral): well tolerated
- patients remaining on study longer than 25 weeks (of 30) (serum PSA; 30 mg or 60 mg daily oral): 11 patients
- Percent of patients with sustained declines (by >50 percent) in serum PSA (serum PSA; first 30 patients): 43%
- Apoptosis in VCaP cells (VCaP cells [7]): induced apoptosis
- Expression of AR target genes PSA and TMPRSS2 (agonist activity) [3]: do not have agonist activity
- Tumor responses (LNCaP/AR tumors; MDV3100 treatment (fig. S5)): Tumor responses were also observed
- Antagonism of induction of PSA and TMPRSS2 by R1881 [8]: antagonized induction
- Growth of VCaP cells (VCaP cells [9]): suppressed growth
- AR recruitment to PSA enhancer and TMPRSS2 enhancer [5]: Neither RD162 nor MDV3100 recruited AR

Structure (SMILES): CC1(C)C(=O)N(c2ccc(C#N)c(C(F)(F)F)c2)C(=S)N1CCCCO [RU59063]
- affinity for AR, fold reduced compared to testosterone (AR): 3 fold

Structure (SMILES): C[C@]1(O)CC[C@H]2[C@@H]3CCC4=CC(=O)CCC4=C3C=C[C@@]21C [R1881, reference compound]
- AR recruitment to PSA enhancer and TMPRSS2 enhancer [1]: promoted AR recruitment
- Activation of VP16-AR (VP16-AR fusion protein): activated VP16-AR
- AR recruitment to PSA enhancer and TMPRSS2 enhancer [5]: only R1881 promoted recruitment
